Test results from the NIST ThermoML archive (doi:10.1021/acs.jced.8b00662).

Assay: xn = mol fraction of the nth substance listed
Conditions: 100 kPa, Liquid; for viscosity: Falling or rolling sphere viscometry; for mass density: Vibrating tube method

OCC1CC1 [cyclopropylmethanol] + c1ccc2c(c1)CCCC2
Conditions | mass density [kg/m3] | viscosity [mPa·s]
293.15 K, x2 = 0 | 913.02 | 3.988
293.15 K, x2 = 0.0993 | 921.89 | 3.498
293.15 K, x2 = 0.1972 | 929.26 | 3.134
293.15 K, x2 = 0.3008 | 936.02 | 2.837
293.15 K, x2 = 0.3978 | 941.84 | 2.622
293.15 K, x2 = 0.4986 | 947.21 | 2.449
293.15 K, x2 = 0.6031 | 952.27 | 2.318
293.15 K, x2 = 0.7031 | 956.72 | 2.229
293.15 K, x2 = 0.7981 | 960.63 | 2.182
293.15 K, x2 = 0.901 | 964.72 | 2.164
298.15 K, x2 = 0 | 908.96 | 3.455
298.15 K, x2 = 0.0993 | 917.77 | 3.039
298.15 K, x2 = 0.1972 | 925.12 | 2.734
298.15 K, x2 = 0.3008 | 931.86 | 2.49
298.15 K, x2 = 0.3978 | 937.67 | 2.313
298.15 K, x2 = 0.4986 | 943.05 | 2.173
298.15 K, x2 = 0.6031 | 948.12 | 2.068
298.15 K, x2 = 0.7031 | 952.59 | 1.997
298.15 K, x2 = 0.7981 | 956.53 | 1.963
298.15 K, x2 = 0.901 | 960.66 | 1.952
303.15 K, x2 = 0 | 904.87 | 3.009
303.15 K, x2 = 0.0993 | 913.62 | 2.656
303.15 K, x2 = 0.1972 | 920.94 | 2.402
303.15 K, x2 = 0.3008 | 927.67 | 2.2
303.15 K, x2 = 0.3978 | 933.47 | 2.053
303.15 K, x2 = 0.4986 | 938.85 | 1.94
303.15 K, x2 = 0.6031 | 943.94 | 1.855
303.15 K, x2 = 0.7031 | 948.44 | 1.8
303.15 K, x2 = 0.7981 | 952.41 | 1.774
303.15 K, x2 = 0.901 | 956.59 | 1.77
308.15 K, x2 = 0 | 900.74 | 2.635
308.15 K, x2 = 0.0993 | 909.43 | 2.338
308.15 K, x2 = 0.1972 | 916.73 | 2.123
308.15 K, x2 = 0.3008 | 923.44 | 1.958
308.15 K, x2 = 0.3978 | 929.24 | 1.836
308.15 K, x2 = 0.4986 | 934.63 | 1.747
308.15 K, x2 = 0.6031 | 939.74 | 1.675
308.15 K, x2 = 0.7031 | 944.26 | 1.633
308.15 K, x2 = 0.7981 | 948.28 | 1.613
308.15 K, x2 = 0.901 | 952.52 | 1.618
313.15 K, x2 = 0 | 896.59 | 2.321
313.15 K, x2 = 0.0993 | 905.22 | 2.068
313.15 K, x2 = 0.1972 | 912.49 | 1.889
313.15 K, x2 = 0.3008 | 919.19 | 1.754
313.15 K, x2 = 0.3978 | 925 | 1.651
313.15 K, x2 = 0.4986 | 930.4 | 1.579
313.15 K, x2 = 0.6031 | 935.53 | 1.521
313.15 K, x2 = 0.7031 | 940.09 | 1.491
313.15 K, x2 = 0.7981 | 944.15 | 1.474
313.15 K, x2 = 0.901 | 948.45 | 1.485
318.15 K, x2 = 0 | – | 2.054
318.15 K, x2 = 0.0993 | – | 1.84
318.15 K, x2 = 0.1972 | – | 1.688
318.15 K, x2 = 0.3008 | – | 1.577
318.15 K, x2 = 0.3978 | – | 1.492
318.15 K, x2 = 0.4986 | – | 1.433
318.15 K, x2 = 0.6031 | – | 1.387
318.15 K, x2 = 0.7031 | – | 1.366
318.15 K, x2 = 0.7981 | – | 1.355
318.15 K, x2 = 0.901 | – | 1.369
